{"source": "patent US6706663B2", "about": "“Herbicidal 3-heterocyclic substituted benzisothiazole and benzisoxazole compounds” (Wyeth, priority 2000, dated 2004)", "key": {"[1]": {"system": "CHEAL (Chenopodium album)", "assay": "Preemergence herbicidal evaluation", "format": "in vivo, L.", "details": "preemergence, rated 4-5 weeks after treatment", "how_it_was_run": "(§1)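 Visual 0-9 rating versus untreated control, taken four to five weeks post-treatment, scoring stand, vigor, malformation, size, chlorosis and overall appearance. Compound applied as aqueous acetone spray to freshly seeded soil cups, then kept under standard greenhouse care.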"}, "[2]": {"system": "AMBEL (Ambrosia artemisifolia)", "assay": "Preemergence herbicidal evaluation", "format": "in vivo, L.", "details": "preemergence, rated 4-5 weeks after treatment", "how_it_was_run": "as §1"}, "[3]": {"system": "CASOB (Cassia obtusifolia)", "assay": "Preemergence herbicidal evaluation", "format": "in vivo, L.", "details": "preemergence, rated 4-5 weeks after treatment", "how_it_was_run": "as §1"}, "[4]": {"system": "GLXMAW (Soybean, Williams)", "assay": "Postemergence herbicidal evaluation", "format": "in vivo, Glycine max, (L.) Merr. cv Williams", "how_it_was_run": "(§2)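 Visual 0–9 injury scores versus control plants, covering stand, vigour, malformation, size, chlorosis and general appearance, taken four to five weeks post-spray and averaged over replicate tests. Plants were sprayed at roughly two weeks old and held on greenhouse benches.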"}, "[5]": {"system": "ECHORC (Echinochloa oryzoides)", "assay": "Flooded paddy, preemergence weed control", "format": "in vivo, Echinochloa oryzoides (Ard.) Fritsch.", "details": "rated 3-4 weeks after treatment, 0-9 rating scale", "how_it_was_run": "(§3)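 Seeds or propagules were planted in the top 0.5 cm of silt loam soil and kept flooded 1.5–3 cm above the surface throughout, then held in the greenhouse. Injury was rated visually on a 0–9 scale against untreated controls, covering stand, vigor, malformation, size and chlorosis.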"}, "[6]": {"system": "MOOVA (Monochoria vaginalis)", "assay": "Flooded paddy, preemergence weed control", "format": "in vivo, Presl.", "details": "rated 3-4 weeks after treatment, 0-9 rating scale", "how_it_was_run": "as §3"}, "GALAP (Galium aparine)": {"system": "GALAP (Galium aparine)", "assay": "Preemergence herbicidal evaluation", "format": "in vivo", "details": "preemergence, rated 4-5 weeks after treatment", "how_it_was_run": "as §1"}, "ORYSAT (Rice, Tebonnet) [7]": {"system": "ORYSAT (Rice, Tebonnet)", "assay": "Preemergence herbicidal evaluation", "format": "in vivo, Oryza sativa, (L.) Tebonnet", "details": "preemergence, rated 4-5 weeks after treatment"}, "[8]": {"system": "TRZAWR (Wheat, Winter, cv Riband)", "assay": "Postemergence herbicidal evaluation", "format": "in vivo, Triticum aestivum", "how_it_was_run": "as §2"}, "ORYSAT (Rice, Tebonnet) [9]": {"system": "ORYSAT (Rice, Tebonnet)", "assay": "Postemergence herbicidal evaluation", "format": "in vivo, Oryza sativa, (L.) Tebonnet", "how_it_was_run": "as §2"}, "ZEAMX (Corn, Field)": {"system": "ZEAMX (Corn, Field)", "assay": "Postemergence herbicidal evaluation", "format": "in vivo, Zea mays, L.", "how_it_was_run": "as §2"}, "[10]": {"system": "CYPSE (Cyperus serotinus)", "assay": "Flooded paddy, preemergence weed control", "format": "in vivo, Rottb.", "details": "rated 3-4 weeks after treatment, 0-9 rating scale", "how_it_was_run": "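Herbicidal effect was scored visually on a 0–9 scale against an untreated control 3–4 weeks after treatment. Compounds were applied preemergence as 50/50 v/v aqueous/acetone mixtures into flood water (1.5–3 cm deep over silt loam), at roughly 0.0080 to 0.1250 kg/ha active ingredient.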"}, "[11]": {"system": "ECHCG (Echinochloa crus-galli)", "assay": "Postemergence herbicidal evaluation", "format": "in vivo, (L.) Beau", "how_it_was_run": "as §2"}, "[12]": {"system": "TRZAWR (Wheat, Winter, cv Riband)", "assay": "Preemergence herbicidal evaluation", "format": "in vivo, Triticum aestivum", "details": "preemergence, rated 4-5 weeks after treatment", "how_it_was_run": "as §1"}, "[13]": {"system": "ABUTH (Abutilon theophrasti)", "assay": "Preemergence herbicidal evaluation", "format": "in vivo, Medic.", "details": "preemergence, rated 4-5 weeks after treatment"}, "[14]": {"system": "ECHCG (Echinochloa crus-galli)", "assay": "Preemergence herbicidal evaluation", "format": "in vivo, (L.) Beau", "details": "preemergence, rated 4-5 weeks after treatment", "how_it_was_run": "as §1"}, "SETVI (Setaria viridis) [15]": {"system": "SETVI (Setaria viridis)", "assay": "Preemergence herbicidal evaluation", "format": "in vivo, (L.) Beau", "details": "preemergence, rated 4-5 weeks after treatment", "how_it_was_run": "as §1"}, "[16]": {"system": "IPOHE (Ipomoea hederacea)", "assay": "Postemergence herbicidal evaluation", "format": "in vivo, (L.) Jacq.", "how_it_was_run": "as §2"}, "SETVI (Setaria viridis) [17]": {"system": "SETVI (Setaria viridis)", "assay": "Postemergence herbicidal evaluation", "format": "in vivo, (L.) Beau", "how_it_was_run": "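First, seedlings are raised in flats for about two weeks. Next, compound dispersed in 50/50 acetone/water with 0.5% TWEEN 20 is sprayed at 40 psi to deliver about 0.0040–1.000 kg/ha. Plants are then maintained in the greenhouse and rated 0-9 after four to five weeks.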"}}, "data": [{"smiles": "Cc1nnc(-c2nsc3ccc(-n4c(=O)cc(C(F)(F)F)n(C)c4=O)cc23)s1", "note": "[Compound 17, 1-methyl-3-[3-(5-methyl-1,3,4-thiadiazol-2-yl)-1,2-benzisothiazol-5-yl]-6-(trifluoromethyl)uracil]", "values": [{"measurement": "CHEAL preemergence herbicidal rating", "setting": "[1]; Rate 0.0620 kg/ha", "result": 9.0}, {"measurement": "CHEAL preemergence herbicidal rating", "setting": "[1]; Rate 0.1250 kg/ha", "result": 9.0}, {"measurement": "CHEAL preemergence herbicidal rating", "setting": "[1]; Rate 0.2500 kg/ha", "result": 9.0}, {"measurement": "AMBEL preemergence herbicidal rating", "setting": "[2]; Rate 0.0620 kg/ha", "result": 4.0}, {"measurement": "AMBEL preemergence herbicidal rating", "setting": "[2]; Rate 0.1250 kg/ha", "result": 5.0}, {"measurement": "AMBEL preemergence herbicidal rating", "setting": "[2]; Rate 0.2500 kg/ha", "result": 9.0}, {"measurement": "CASOB preemergence herbicidal rating", "setting": "[3]; Rate 0.0620 kg/ha", "result": 0.0}, {"measurement": "CASOB preemergence herbicidal rating", "setting": "[3]; Rate 0.1250 kg/ha", "result": 0.0}, {"measurement": "CASOB preemergence herbicidal rating", "setting": "[3]; Rate 0.2500 kg/ha", "result": 3.0}, {"measurement": "Postemergence herbicidal rating, GLXMAW", "setting": "[4]; rate 0.0320 kg/ha", "result": 5.0}, {"measurement": "Postemergence herbicidal rating, GLXMAW", "setting": "[4]; rate 0.0620 kg/ha", "result": 6.5}, {"measurement": "Postemergence herbicidal rating, GLXMAW", "setting": "[4]; rate 0.1250 kg/ha", "result": 8.0}, {"measurement": "Postemergence herbicidal rating, GLXMAW", "setting": "[4]; rate 0.2500 kg/ha", "result": 8.5}, {"measurement": "herbicidal rating, ECHORC", "setting": "[5]; rate 0.0080 kg/ha", "result": 0.0}, {"measurement": "herbicidal rating, ECHORC", "setting": "[5]; rate 0.0320 kg/ha", "result": 3.0}, {"measurement": "herbicidal rating, ECHORC", "setting": "[5]; rate 0.1250 kg/ha", "result": 6.0}, {"measurement": "herbicidal rating, MOOVA", "setting": "[6]; rate 0.0080 kg/ha", "result": 6.0}, {"measurement": "herbicidal rating, MOOVA", "setting": "[6]; rate 0.0320 kg/ha", "result": 9.0}, {"measurement": "herbicidal rating, MOOVA", "setting": "[6]; rate 0.1250 kg/ha", "result": 9.0}, {"measurement": "GALAP preemergence herbicidal rating", "setting": "GALAP (Galium aparine); Rate 0.0620 kg/ha", "result": 7.0}, {"measurement": "GALAP preemergence herbicidal rating", "setting": "GALAP (Galium aparine); Rate 0.1250 kg/ha", "result": 9.0}, {"measurement": "GALAP preemergence herbicidal rating", "setting": "GALAP (Galium aparine); Rate 0.2500 kg/ha", "result": 9.0}, {"measurement": "ORYSAT preemergence herbicidal rating", "setting": "ORYSAT (Rice, Tebonnet) [7]; Rate 0.0620 kg/ha", "result": 0.0}, {"measurement": "ORYSAT preemergence herbicidal rating", "setting": "ORYSAT (Rice, Tebonnet) [7]; Rate 0.1250 kg/ha", "result": 0.0}, {"measurement": "ORYSAT preemergence herbicidal rating", "setting": "ORYSAT (Rice, Tebonnet) [7]; Rate 0.2500 kg/ha", "result": 1.0}, {"measurement": "Postemergence herbicidal rating, TRZAWR", "setting": "[8]; rate 0.0320 kg/ha", "result": 3.0}, {"measurement": "Postemergence herbicidal rating, TRZAWR", "setting": "[8]; rate 0.0620 kg/ha", "result": 3.0}, {"measurement": "Postemergence herbicidal rating, TRZAWR", "setting": "[8]; rate 0.1250 kg/ha", "result": 3.0}, {"measurement": "Postemergence herbicidal rating, TRZAWR", "setting": "[8]; rate 0.2500 kg/ha", "result": 3.5}, {"measurement": "Postemergence herbicidal rating, ORYSAT", "setting": "ORYSAT (Rice, Tebonnet) [9]; rate 0.0320 kg/ha", "result": 1.0}, {"measurement": "Postemergence herbicidal rating, ORYSAT", "setting": "ORYSAT (Rice, Tebonnet) [9]; rate 0.0620 kg/ha", "result": 1.5}, {"measurement": "Postemergence herbicidal rating, ORYSAT", "setting": "ORYSAT (Rice, Tebonnet) [9]; rate 0.1250 kg/ha", "result": 2.0}, {"measurement": "Postemergence herbicidal rating, ORYSAT", "setting": "ORYSAT (Rice, Tebonnet) [9]; rate 0.2500 kg/ha", "result": 7.5}, {"measurement": "Postemergence herbicidal rating, ZEAMX", "setting": "ZEAMX (Corn, Field); rate 0.0320 kg/ha", "result": 4.0}, {"measurement": "Postemergence herbicidal rating, ZEAMX", "setting": "ZEAMX (Corn, Field); rate 0.0620 kg/ha", "result": 4.0}, {"measurement": "Postemergence herbicidal rating, ZEAMX", "setting": "ZEAMX (Corn, Field); rate 0.1250 kg/ha", "result": 4.0}, {"measurement": "Postemergence herbicidal rating, ZEAMX", "setting": "ZEAMX (Corn, Field); rate 0.2500 kg/ha", "result": 5.0}, {"measurement": "herbicidal rating, CYPSE", "setting": "[10]; rate 0.0080 kg/ha", "result": 0.0}, {"measurement": "herbicidal rating, CYPSE", "setting": "[10]; rate 0.0320 kg/ha", "result": 3.0}, {"measurement": "herbicidal rating, CYPSE", "setting": "[10]; rate 0.1250 kg/ha", "result": 4.5}, {"measurement": "Postemergence herbicidal rating, ECHCG", "setting": "[11]; rate 0.0320 kg/ha", "result": 0.0}, {"measurement": "Postemergence herbicidal rating, ECHCG", "setting": "[11]; rate 0.0620 kg/ha", "result": 0.0}, {"measurement": "Postemergence herbicidal rating, ECHCG", "setting": "[11]; rate 0.1250 kg/ha", "result": 0.0}, {"measurement": "Postemergence herbicidal rating, ECHCG", "setting": "[11]; rate 0.2500 kg/ha", "result": 0.0}, {"measurement": "TRZAWR preemergence herbicidal rating", "setting": "[12]; Rate 0.0620 kg/ha", "result": 0.0}, {"measurement": "TRZAWR preemergence herbicidal rating", "setting": "[12]; Rate 0.1250 kg/ha", "result": 0.0}, {"measurement": "TRZAWR preemergence herbicidal rating", "setting": "[12]; Rate 0.2500 kg/ha", "result": 5.0}, {"measurement": "ABUTH preemergence herbicidal rating", "setting": "[13]; Rate 0.0620 kg/ha", "result": 9.0}, {"measurement": "ABUTH preemergence herbicidal rating", "setting": "[13]; Rate 0.1250 kg/ha", "result": 9.0}, {"measurement": "ABUTH preemergence herbicidal rating", "setting": "[13]; Rate 0.2500 kg/ha", "result": 9.0}, {"measurement": "ECHCG preemergence herbicidal rating", "setting": "[14]; Rate 0.0620 kg/ha", "result": 0.0}, {"measurement": "ECHCG preemergence herbicidal rating", "setting": "[14]; Rate 0.1250 kg/ha", "result": 1.0}, {"measurement": "ECHCG preemergence herbicidal rating", "setting": "[14]; Rate 0.2500 kg/ha", "result": 5.0}, {"measurement": "SETVI preemergence herbicidal rating", "setting": "SETVI (Setaria viridis) [15]; Rate 0.0620 kg/ha", "result": 0.0}, {"measurement": "SETVI preemergence herbicidal rating", "setting": "SETVI (Setaria viridis) [15]; Rate 0.1250 kg/ha", "result": 9.0}, {"measurement": "SETVI preemergence herbicidal rating", "setting": "SETVI (Setaria viridis) [15]; Rate 0.2500 kg/ha", "result": 9.0}, {"measurement": "Postemergence herbicidal rating, IPOHE", "setting": "[16]; rate 0.0320 kg/ha", "result": 9.0}, {"measurement": "Postemergence herbicidal rating, IPOHE", "setting": "[16]; rate 0.0620 kg/ha", "result": 9.0}, {"measurement": "Postemergence herbicidal rating, IPOHE", "setting": "[16]; rate 0.1250 kg/ha", "result": 9.0}, {"measurement": "Postemergence herbicidal rating, IPOHE", "setting": "[16]; rate 0.2500 kg/ha", "result": 9.0}, {"measurement": "Postemergence herbicidal rating, SETVI", "setting": "SETVI (Setaria viridis) [17]; rate 0.0320 kg/ha", "result": 0.0}, {"measurement": "Postemergence herbicidal rating, SETVI", "setting": "SETVI (Setaria viridis) [17]; rate 0.0620 kg/ha", "result": 0.0}, {"measurement": "Postemergence herbicidal rating, SETVI", "setting": "SETVI (Setaria viridis) [17]; rate 0.1250 kg/ha", "result": 3.0}, {"measurement": "Postemergence herbicidal rating, SETVI", "setting": "SETVI (Setaria viridis) [17]; rate 0.2500 kg/ha", "result": 7.0}]}]}
